Test results from publication PMC4871480, “A Miniaturized Screen of a Schistosoma mansoni Serotonergic G Protein-Coupled Receptor Identifies Novel Classes of Parasite-Selective Inhibitors” (PLoS Pathogens, 2016).
“Also recorded” adds a separate entry of the source. Where two headings read alike, the source gives them in different places.

Columns and labels:
[1] = system: S. mansoni schistosomules; assay: Schistosomule contractility assay; type: in vivo, Schistosoma mansoni; settings: exogenous addition, dose-dependent
Protocol: Biomphalaria glabrata (M-line) snails exposed to Schistosoma mansoni miracidia (Strain PR-1) were obtained from BEI Resources (Cat. number NR-21961) and cercaria were shed following exposure to light (1.5 hours). Cercaria were manually transformed into schistosomula by vortexing (3 x 45 seconds, each separated by 3 minutes on ice) and tails were removed by gradient centrifugation (24ml Percoll, 4ml 10X EMEM, 1.5ml penicillin-streptomycin, 1ml of 1M HEPES in 0.85% NaCl, 9.5ml distilled water) at 500g/15min at 4°C. Supernatant containing tails was discarded, and schistosomules were resuspended in Basch media and incubated (37°C, 5% CO2) overnight before conducting mobility assays. For contractility experiments, somules were incubated in 5-HT free Basch media to resolve a basal contractility rate. […] Schistosomules were incubated in 24 well plates (~200 schistosomules / 0.5mL media per well) for 30 minutes (37°C/5% CO2) prior to acquiring videos of schistosome movement (1 minute recordings / well) using a Nikon Coolpix 5700 camera affixed to a Nikon Eclipse TS100 microscope (10x objective). The WrmTrck plugin for ImageJ was used to quantify worm mobility. Briefly, the major axis of each schistosomule body length was extracted from the raw output of WrmTrck and an average length was determined for the duration of the recording. Contractions were quantified by determining the number of episodes during which the worm body length deviated from the average by over 20%. S. mansoni protocols were approved by the Iowa State University Institutional Biosafety Committee.

adult schistosomes = assay: Adult schistosome mobility assay; type: in vivo, Schistosoma mansoni; settings: 5-HT application
Protocol: Female Swiss Webster mice exposed to Schistosoma mansoni cerceria (Strain PR-1) at 5–7 weeks old were obtained from BEI Resources (Cat. number NR-34792) and sacrificed 6–8 weeks post-infection. Mature S. mansoni were harvested from the mesenteric vasculature by portal perfusion. Briefly, mice were anesthetized in a CO2 chamber and sacrificed by cervical dislocation. Mice were perfused with sodium citrate (25mM) and adult schistosomes were harvested from the mesenteric veins. Schistosomes were washed in RPMI media containing penicillin (1000 units/mL), streptomycin (1000 μg/mL) and 25mM HEPES, then transferred to RPMI media supplemented with 2mM glutamine and 5% heat inactivated FBS. Worms were incubated overnight at 37°C, 5% CO2 before conducting assays. Recordings of adult schistosome movement were captured using a Zeiss Discovery v20 stereomicroscope and a QiCAM 12-bit cooled color CCD camera. Videos were acquired at a rate of four frames per second for one minute. Recordings of female worms were acquired at 7.6x magnification, 30 mm field of view and recordings of male worms were acquired at a 5.1x magnification, 45 mm field of view. Analysis was performed in ImageJ as described previously. Briefly, image (.tiff) stacks of each recording were imported and processed by converting to binary format so that pixel measurements represent area of the worms’ bodies. Mobility was quantified by measuring the difference in pixels resulting from subtracting the value of one frame (n) from those of the next frame in the sequence (n+1). This difference was expressed as a percentage of the pixels in the initial frame (n), providing a measurement of the worms’ movement over a period of 0.25 seconds. This calculation was performed for each frame in the video, and the results were averaged over the length of the recording. Values reported represent the mean (±) standard error of at least three independent experiments. Animal work was carried out with the oversight and approval of the Laboratory Animal Resources facility at the Iowa State University College of Veterinary Medicine.

Sm.5HTRL = Sm.5HTRL (Schistosoma mansoni, UniProt A0A173FEI8); assay: GloSensor cAMP assay in HEK293 cells expressing Sm.5HTRL; type: cell-based; settings: for inhibition of 5-HT evoked cAMP generation through Sm.5HTRL: antagonists 10μM, 5-HT EC80 dose
Chain of Sm.5HTRL (A0A173FEI8 entry or part of it): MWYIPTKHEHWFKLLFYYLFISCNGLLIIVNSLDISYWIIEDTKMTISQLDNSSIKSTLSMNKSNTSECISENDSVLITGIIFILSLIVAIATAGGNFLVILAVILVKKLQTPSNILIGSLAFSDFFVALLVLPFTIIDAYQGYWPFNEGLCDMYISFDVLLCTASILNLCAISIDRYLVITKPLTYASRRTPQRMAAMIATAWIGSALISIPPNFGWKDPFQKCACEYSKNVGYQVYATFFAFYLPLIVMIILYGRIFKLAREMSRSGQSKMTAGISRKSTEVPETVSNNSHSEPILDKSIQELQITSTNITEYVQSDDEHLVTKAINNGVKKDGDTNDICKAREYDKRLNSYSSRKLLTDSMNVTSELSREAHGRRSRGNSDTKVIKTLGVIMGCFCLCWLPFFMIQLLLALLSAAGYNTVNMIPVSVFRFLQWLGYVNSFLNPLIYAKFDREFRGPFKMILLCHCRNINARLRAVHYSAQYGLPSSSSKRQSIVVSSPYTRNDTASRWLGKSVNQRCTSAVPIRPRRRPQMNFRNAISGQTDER
Protocol: (§1) HEK293 cells (ATCC CRL-1573.3) were cultured in DMEM supplemented with 10% fetal bovine serum (FBS), penicillin (100 units/ml), streptomycin (100 μg/ml), and L-glutamine (290 μg/ml). Cells were transiently transfected (ViaFect, Promega) as per the manufacturer’s protocol at a density of 2x10^6 cells per T-25 cell-culture flask. Cells were transfected with plasmids encoding GloSensor (Promega) and either Sm.5HTR (Smp_126730, GenBank accession number KF444051.1) or Sm.5HTRL (KX150867), bothGPCRs being codon optimized for mammalian expression, or Hs.5HT7a (GenBank accession number NM_000872.4, R&D Systems) subcloned into pCS2(-). Cell culture reagents were from Invitrogen. Epitope tagged constructs were used to verify expression, and untagged constructs used for all luminescence assays.
(§2) For assays performed on adherent cells, HEK-293 cells were transferred one day post transfection to 96 well, solid white plates (Corning, cat # 3917) coated with 0.01% poly-L-lysine (Sigma Aldrich) at a density of 5 x 10^4 cells / well in DMEM supplemented with 1% dialyzed FBS (Gibco). After overnight culture (37°C/5% CO2), media was decanted and replaced with 100μL / well HBSS supplemented with 0.1% BSA, 20mM HEPES (pH 7.4) and GloSensor reagent. Plates were allowed to equilibrate at room temperature for two hours prior to performing luminescence assays (GloMax-Multi Detection System plate reader, Promega). Conditions for individual assays were described as per figure legends. The standard assay to detect changes in cAMP utilized the F22 sensor in media supplemented with IBMX (200μM). Ligands were added at a concentration of 20x per well for experiments (i.e. 5μl of drug solution added to 100μl of cells). […] For the resazurin reduction assay for cellular viability, cells were incubated with resazurin (final concentration, 10μM) and tested ligands with fluorescence measurements (560 nm excitation/590 nm emission) made at 1.5hr intervals.

Sm.5HTR [2] = molecular target: T1, Sm.5HTR (Schistosoma mansoni, UniProt G4V5G4); assay: cell-based; type: cell-based; settings: for ligand type at Sm.5HTR: Fig 5F; for agonist efficacy at Sm.5HTR: dose response, Fig 5A; for activity at Sm.5HTR: antagonist/modulator screening; for GPCR inhibition profile compared with rotundine: Sm.5HTR vs Hs.5HT7R, Fig F in S1 Text; for Emax: HEK293, read-out: 5-HT Emax
T1 sequence (G4V5G4 entry or part of it): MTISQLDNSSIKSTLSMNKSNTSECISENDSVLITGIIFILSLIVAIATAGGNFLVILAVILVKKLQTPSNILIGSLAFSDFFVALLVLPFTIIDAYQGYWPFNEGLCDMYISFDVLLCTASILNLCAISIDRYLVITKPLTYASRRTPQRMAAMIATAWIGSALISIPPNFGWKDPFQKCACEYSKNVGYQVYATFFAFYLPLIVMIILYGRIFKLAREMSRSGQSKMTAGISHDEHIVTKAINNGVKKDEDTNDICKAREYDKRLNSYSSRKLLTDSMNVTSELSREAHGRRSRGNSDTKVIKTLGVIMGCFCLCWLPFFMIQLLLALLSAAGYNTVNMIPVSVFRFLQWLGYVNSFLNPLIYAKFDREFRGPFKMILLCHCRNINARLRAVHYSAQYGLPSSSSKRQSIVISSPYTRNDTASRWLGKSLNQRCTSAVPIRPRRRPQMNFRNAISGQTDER
Protocol: as §1, §2

Hs.5HT7R = molecular target: T2, Hs.5HT7R (Homo sapiens, UniProt P34969); assay: GloSensor cAMP assay in HEK293 cells expressing Hs.5HT7R; type: cell-based; settings: Fig 4
T2 construct: host or cells: HEK293 (ATCC CRL-1573.3), transient transfection, pCS2(-) vector
T2 sequence (P34969 1-445 isoform P34969-2): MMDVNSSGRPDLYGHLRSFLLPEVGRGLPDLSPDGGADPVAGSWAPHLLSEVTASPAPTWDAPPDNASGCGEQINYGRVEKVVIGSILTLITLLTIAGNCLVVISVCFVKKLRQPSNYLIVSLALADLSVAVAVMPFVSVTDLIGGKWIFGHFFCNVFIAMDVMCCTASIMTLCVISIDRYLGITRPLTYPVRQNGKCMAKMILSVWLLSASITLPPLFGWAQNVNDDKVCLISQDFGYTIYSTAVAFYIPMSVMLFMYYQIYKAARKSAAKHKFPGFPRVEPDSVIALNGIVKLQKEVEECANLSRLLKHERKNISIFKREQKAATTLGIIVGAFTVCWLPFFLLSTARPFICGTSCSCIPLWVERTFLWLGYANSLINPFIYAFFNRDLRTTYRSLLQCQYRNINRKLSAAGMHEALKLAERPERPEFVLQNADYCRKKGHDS
Protocol: as §1, §2

Sm.5HTR [3] = molecular target: T1, Sm.5HTR; assay: Antagonist washout (inactivating antagonist) GloSensor assay on suspension cells; type: cell-based; settings: for inhibition of Sm.5HTR after antagonist wash-out: 10μM for 30 mins, washout, 5-HT response 1hr later
Protocol: To test putative irreversible antagonists, assays on suspension cells were performed one day post transfection. […] Compounds were added at 10 μM, and after 30 minute incubation at room temperature cells were centrifuged (300 RCF, 5 minutes) and resuspended in fresh media. This wash step was repeated, and cells were resuspended in HBSS supplemented with 0.1% BSA, 20mM HEPES and GloSensor reagent. Cells were gently rotated to prevent aggregation and settling over the course of the two hour equilibration period, after which time they were transferred to 96 well plates at a density of 8 x 10^4 cells / 100μL per well and assays described for adherent cells.

[4] = IC50 (Hs.5HT7R) / IC50 (Sm.5HTR)
[5] = EC50 (agonist, cAMP generation), F22 sensor with IBMX

## NCCc1c[nH]c2ccc(O)cc12 [5-HT, Serotonin]
[1]
  effect on basal contractile rate of schistosomules: increase in the basal contractile rate
Adult schistosomes
  effect on movement of unpaired male and female worms: significantly increased the movement
Sm.5HTRL; F22 sensor with IBMX, read-out: EC50 (cAMP generation, Sm.5HTRL)
  EC50: 200 ± 30 nM
Sm.5HTRL; HEK293
  EC80: 800 nM
Sm.5HTRL; ratio of 5-HT EC50 values
  greater sensitivity of Sm.5HTRL vs Sm.5HTR: ~ 10 fold

## CCN(CC)C(=O)[C@@H]1C=C2c3cccc4[nH]cc(c34)C[C@H]2N(C)C1 [LSD, lysergic acid diethylamide]
Sm.5HTR [2]
  ligand type at Sm.5HTR: Antagonist
  agonist efficacy at Sm.5HTR: no efficacy
Sm.5HTR [2]; KB (affinity constant, Schild regression), right-shift of 5-HT dose-response
  Kb: 629 nM
Sm.5HTR [2]; at higher concentrations (>10μM)
  inhibition of 5-HT evoked cAMP generation: almost complete inhibition
Sm.5HTR [2]; pKB ± S.E.M, Schild regression
  Kb: 631 nM

## O=C(C1CCCCC1)N1CC(=O)N2CCc3ccccc3C2C1 (stereo not shown) [Praziquantel, praziquantel]
Sm.5HTR [2]
  ligand type at Sm.5HTR: Inactive
Sm.5HTR [2]; listed as PZQ
  activity at Sm.5HTR: did not reveal any modulation of receptor activity; also recorded: did not yield any effect

## CC1CCN(CC[C@H]2CCCN2S(=O)(=O)c2cccc(O)c2)CC1 [SB269970]
Sm.5HTR [2]
  activity at Sm.5HTR: modest effects
Sm.5HTR [2]; listed as SB 269970
  activity at Sm.5HTR: completely lacked activity

## O=S(=O)(c1ccccc1)c1cnc2c(N3CCNCC3)cccc2c1 [SB742457]
Hs.5HT7R
  inhibition of Hs.5HT7R: potent inhibitors
Sm.5HTR [2]
  activity at Sm.5HTR: completely lacked activity; also recorded: modest effects

## COc1cc2nc(N(C)CCCNC(=O)C3CCCO3)nc(N)c2cc1OC (stereo not shown) [alfuzosin]
Sm.5HTRL
  inhibition of 5-HT evoked cAMP generation through Sm.5HTRL: inhibited 5-HT evoked cAMP generation
Sm.5HTR [2]; [4]
  selectivity for Sm.5HTR over Hs.5HT7R: clear selectivity for Sm.5HTR; also recorded: clear bias toward Sm.5HTR

## CCN1CCCC1CNC(=O)c1cc(S(=O)(=O)CC)c(N)cc1OC (stereo not shown) [amisulpride]
Sm.5HTR [2]
  activity at Sm.5HTR: modest effects

## CNCC[C@@H](Oc1ccccc1C)c1ccccc1 [atomoxetine]
Sm.5HTRL
  inhibition of 5-HT evoked cAMP generation through Sm.5HTRL: inhibited 5-HT evoked cAMP generation
Sm.5HTR [2]
  selectivity for Sm.5HTR over Hs.5HT7R: clear selectivity for Sm.5HTR; also recorded: preferential selectivity toward Sm.5HTR

## COc1ccc2cc3[n+](cc2c1OC)CCc1cc2c(cc1-3)OCO2 [berberine]
Sm.5HTR [2]
  GPCR inhibition profile compared with rotundine: decreased potency and selectivity for Sm.5HTR

## CN1CCN(C2=Nc3cc(Cl)ccc3Nc3ccccc32)CC1 [clozapine]
Sm.5HTR [2]
  acute inhibition of 5-HT (10μM) response at Sm.5HTR: Inhibition of 5-HT response

## CN1CCC(=C2c3ccccc3C=Cc3ccccc32)CC1 [cyproheptadine]
Sm.5HTR [3]; 10μM, 30 mins preincubation
  time to full reversal of inhibition after ligand removal: ≤ 1 h
Sm.5HTR [2]
  acute inhibition of 5-HT (10μM) response at Sm.5HTR: acutely inhibited

## CN1C[C@H](C(=O)N[C@]2(C)O[C@@]3(O)[C@@H]4CCCN4C(=O)[C@H](Cc4ccccc4)N3C2=O)C[C@@H]2c3cccc4[nH]cc(c34)C[C@H]21 [dihydroergotamine]
Sm.5HTR [2]; [5]
  EC50: 315 nM
Sm.5HTR [2]
  ligand type at Sm.5HTR: Agonist
  Emax: 52 ± 1%
Sm.5HTR [2]; pEC50 ± S.E.M
  EC50: 316 nM

## CN1C[C@H](C(=O)N[C@]2(C)O[C@@]3(O)[C@@H]4CCCN4C(=O)[C@H](Cc4ccccc4)N3C2=O)C=C2c3cccc4[nH]cc(c34)C[C@H]21 [ergotamine]
Sm.5HTR [2]; [5]
  EC50: 232 nM
Sm.5HTR [2]
  ligand type at Sm.5HTR: Agonist
  Emax: 78 ± 2%
Sm.5HTR [2]; pEC50 ± S.E.M
  EC50: 229 nM

## CNCCC(Oc1ccc(C(F)(F)F)cc1)c1ccccc1 (stereo not shown) [fluoxetine]
Sm.5HTR [2]; [4]
  selectivity for Sm.5HTR over Hs.5HT7R: preferential selectivity toward Sm.5HTR

## CN1C[C@H](CNC(=O)OCc2ccccc2)C[C@@H]2c3cccc4c3c(cn4C)C[C@H]21 [metergoline]
Sm.5HTR [3]
  inhibition of Sm.5HTR after antagonist wash-out: long-lasting inhibition
Sm.5HTR [2]
  ligand type at Sm.5HTR: Antagonist
  agonist efficacy at Sm.5HTR: no efficacy
Sm.5HTR [2]; Schild regression, read-out: pKB ± S.E.M (converted)
  Kb: 4570 nM
Sm.5HTR [2]; drug 10μM, preincubation
  acute inhibition of 5-HT (10μM) response at Sm.5HTR: Inhibition of 5-HT response
Sm.5HTR [2]; right-shift of 5-HT dose-response, read-out: KB (affinity constant, Schild regression)
  Kb: 4530 nM

## CSc1ccc2c(c1)C(N1CCN(C)CC1)Cc1ccccc1S2 (stereo not shown) [methiothepin]
Sm.5HTR [3]
  inhibition of Sm.5HTR after antagonist wash-out: long-lasting inhibition
Sm.5HTR [3]; titration, Fig 6E
  potency for Sm.5HTR inhibition after washout: most potent
Sm.5HTR [2]; drug 10μM, preincubation
  acute inhibition of 5-HT (10μM) response at Sm.5HTR: antagonism of 5-HT stimulated cAMP generation; also recorded: Inhibition of 5-HT response

## COc1cc2c(cc1OC)-c1cc3ccc(OC)c(OC)c3c[n+]1CC2 [palmatine]
Sm.5HTR [2]
  GPCR inhibition profile compared with rotundine: decreased potency and selectivity for Sm.5HTR

## Cc1nc2n(c(=O)c1CCN1CCC(c3noc4cc(F)ccc34)CC1)CCCC2 [risperidone]
Sm.5HTR [3]
  inhibition of Sm.5HTR after antagonist wash-out: long-lasting inhibition
Sm.5HTR [2]
  acute inhibition of 5-HT (10μM) response at Sm.5HTR: Inhibition of 5-HT response
